Experimental findings from ChEMBL document CHEMBL1148250, “MexAB-OprM specific efflux pump inhibitors in Pseudomonas aeruginosa. Part 4: Addressing the problem of poor stability due to photoisomerization of an acrylic acid moiety” (2004) are described below.

Type in all cases: functional
For experiment [1], the system named is Pseudomonas aeruginosa. The experiment in a line: Minimum concentration (using PAM1723, a strain of Pseudomonas aeruginosa) required to reduce antibacterial activity by 8 folds for aztreonam in the presence 0.125% of human serum albumin.
The subject of experiment [2] is Pseudomonas aeruginosa. The experiment can be described thus: Minimum concentration (using PAM1723, a strain of Pseudomonas aeruginosa) required to reduce antibacterial activity by 8 folds for Levofloxacin.
Experiment [3] relates to Pseudomonas aeruginosa. The experiment can be described thus: Minimum concentration (using PAM1723, a strain of Pseudomonas aeruginosa) required to reduce antibacterial activity by 8 folds for aztreonam in the absence of human serum albumin.
Experiment [4] concerns Pseudomonas aeruginosa. The experiment in a line: Minimum concentration (using PAM1723, a strain of Pseudomonas aeruginosa) required to reduce antibacterial activity by 4 folds for Levofloxacin.

Molecules are shown by their SMILES. Some results are limits rather than exact numbers.

For `CC(C)(C)c1csc(NC(=O)c2ccn3c(=O)c(/C=C/c4nnn[nH]4)c(N4CCC[C@@H](OC(N)=O)C4)nc3c2)n1`, the MPC8 with Pseudomonas aeruginosa [1] is 2 µg/mL; in the experiment on Pseudomonas aeruginosa [2] it was 0.5 µg/mL; with Pseudomonas aeruginosa [3], under 0.25 µg/mL. Further, the MPC4 with Pseudomonas aeruginosa [4] was under 0.25 µg/mL.

Turning to `CC(C)(C)c1csc(NC(=O)c2ccn3c(=O)c(/C=C/C(=O)O)c(N4CCC[C@@H](OC(N)=O)C4)nc3c2)n1`, the values for the MPC8 with Pseudomonas aeruginosa [1], in the experiment on Pseudomonas aeruginosa [2] and in the experiment with Pseudomonas aeruginosa [3] were 1 µg/mL, 1 µg/mL and 0.5 µg/mL, respectively. Moreover, the MPC4 with Pseudomonas aeruginosa [4] was under 0.25 µg/mL.

Take `CC(C)c1csc(CCc2ccn3c(=O)c(/C=C/C(=O)O)c(N4CCCC(O)C4)nc3c2)n1` (stereo unspecified): the MPC8 with Pseudomonas aeruginosa [1] came out at 16 µg/mL; in the experiment on Pseudomonas aeruginosa [2] it was 8 µg/mL; in the experiment on Pseudomonas aeruginosa [3], 8 µg/mL. In addition, the MPC4 in the experiment on Pseudomonas aeruginosa [4] was 0.5 µg/mL.

As to `CC(C)(C)c1csc(NC(=O)c2ccn3c(=O)c(/C=C/c4nn[nH]n4)c(N4CCC[C@H](OC(N)=O)C4)nc3c2)n1`, the MPC8 was determined as 4 µg/mL in the experiment with Pseudomonas aeruginosa [1], 2 µg/mL with Pseudomonas aeruginosa [2] and 1 µg/mL in the experiment with Pseudomonas aeruginosa [3]. Also, the MPC4 in the experiment on Pseudomonas aeruginosa [4] was found to be 0.5 µg/mL.
